Measured values: patent US20080014255A1, “Liposome bonded with antibody and polyalkylene glycol” (Mitsubishi Chemical Corporation, priority 1999, published 2008)

Experiment: Pharmacokinetic test: plasma DXR concentration after tail vein administration of liposomes
Format: in vivo, Male BALB/cAjcl mice
Conditions: free (leaked) DXR
Experimental: Male BALB/cAjcl mice (6-week old) were used in experiments. A mouse group consisting of four mice was used for each of the liposomes, and one untreated mouse was used as a blank in the experiment. The liposomes were administered into the tail vein at the dose of 2 mg/kg as DXR. After 16 hours from the administration, a Nembutal injection solution (Dainippon Pharmaceutical Co., Ltd.) was intraperitoneally administered to the mice and thoracotomy was performed under anesthetization to collect blood. Blood plasma was separated and used for analysis of DXR.
100 μL of the plasma was added with 1 mL of 0.3 M hydrochloric acid/50% ethanol (hydrochloric ethanol) and heated at 60° C. for 10 minutes to extract DXR. The extract was cooled to 4° C. and centrifuged at 15,000 rpm for 10 minutes to collect a supernatant. The sample was diluted 4 times with hydrochloric ethanol and its fluorescence was measured at a fluorescence wavelength of 590 nm with an excitation wavelength of 490 nm. A calibration curve was prepared by using DXR diluted with hydrochloric ethanol to known concentrations and used in quantification of DXR in plasma. The recovery of DXR from the mouse plasma was 95 to 98% in a range of […] of DXR (Reference: Cancer Res., 47, 4471, 1987).
DXR in blood plasma was quantified in the same manner as in Example 2.

SMILES: COc1cccc2c1C(=O)c1c(O)c3c(c(O)c1C2=O)C[C@@](O)(C(=O)CO)C[C@@H]3O[C@H]1C[C@H](N)[C@H](O)[C@H](C)O1 [DXR, doxorubicin]
- disappearance from blood of DXR leaked from the liposomes: rapidly disappear from blood
